According to PMC10049354, “Anti-Inflammatory Effects and Photo- and Neuro-Protective Properties of BIO203, a New Amide Conjugate of Norbixin, in Development for the Treatment of Age-Related Macular Degeneration (AMD)” (International Journal of Molecular Sciences, 2023):
Where two headings read alike, the source gives them in different places.

What was measured:
[1] = test system: albino rats exposed to blue-light-induced photoreceptor degeneration; assay: Blue-light damage (BLD) study in albino rats: ERG; assay type: in vivo, rat; conditions: for effect on visual function (ERG A-wave and B-wave): four IP administrations; for efficacy dose in the rat model of BLD: IP
Description: (§1) The ERG in rats was performed using the electrophysiological system RETI-animal® from Roland Consult. ERG was recorded on both eyes from overnight dark-adapted animals. Rats were anesthetized by an intramuscular injection of a mix of Rompun® (xylazine)/Imalgene® (ketamine) before ERG measurement. Ten to fifteen minutes before measurement, one drop of Mydriaticum® (0.5% tropicamide) was instilled for pupillary dilatation. The A-wave and B-wave implicit times (ms) and amplitudes (µV) were measured for each ERG. The B-wave amplitude (value and %) was given as informative data. ERG parameters: Ganzfeld Q450C, Color: white maximum, Maximum intensity: 3 cd/m^2 (0 dB); Duration 0.24 ms; number of flashes: 1, Filter: 50 Hz, Impedance threshold: 50 kΩ. For scotopic ERGs, the A-wave amplitudes were measured from the baseline to the peak of the negative potential, whereas B-wave amplitudes were measured from the trough of the A-wave to the peak of the positive potential. The recordings obtained from these analyses were tabulated and normalized (%) for each eye. Group means, standard deviation, and median values were calculated, considering each eye from one animal as a separate value. ERG recordings in mice were performed as previously described.
Sixty-four animals were selected based on good health and on scotopic electroretinogram performed before induction when the A-wave amplitude of both eyes was in the range of the global mean (all animals) of A-wave amplitude ± 1.96 SD. Animals were then randomized into the study groups using a macro function in Excel® software based on the A-wave amplitude of both eyes (mean value). On Day 0, BIO203, negative controls, and comparator (N-tert-Butyl-a-phenylnitrone (PBN)) were intraperitoneally injected using a 25 G needle in rats that have been dark-adapted for 36 h. Individually housed rats were then exposed for 6 h (±5 min) to a continuous blue, fluorescent light (400–540 nm) in clear plastic cages. After exposure and administration, the rats were placed in a dark room for 24 h (±1 h) and then were returned to rearing cyclic light conditions.

[2] = test system: primary porcine RPE cells; assay: RPE phototoxicity: photoprotection of RPE cells exposed to A2E and blue light; assay type: cell-based, pig; conditions: A2E 30 μM + blue-light illumination
Description: RPE cells were obtained from pig eyes, as previously described. RPE cells were seeded on a 96-well plate at a density of 1.5 × 10^5 cells/cm^2 in DMEM 2% FCS. BIO201, BIO203, or its pure enantiomers were added in increasing concentrations to the culture medium 48 h before illumination. A2E was added to the medium at a final concentration of 30 μM, and 19 h later, blue-light illumination was performed for 50 min using a 96 blue-led device (Durand, St Clair de la Tour, France) emitting at 470 nm (1440 mcd, 8.6 mA). Just before illumination, the culture medium was replaced by a modified DMEM without any photosensitizer and with 2% FCS. Twenty-four hours after blue-light irradiation, all cell nuclei were stained with Hoechst 33342, and nuclei of dead cells with ethidium homodimer 2, fixed with paraformaldehyde (4% in PBS, 10 min) and 9 pictures per well were captured using a fluorescence microscope (Nikon TiE) equipped with a CoolSNAP HQ2 camera and driven by Metamorph Premier On-Line program. Quantification of live cells was performed using Metamorph Premier Off-Line and a homemade program by subtraction of dead cells from all cells. For cytokines mRNA analysis, RPE cells were seeded in 24-well plates and left untreated or treated with A2E or BIO203 alone or A2E plus BIO203. After 48 h, cells were lysed using the lysis buffer from the NucleoSpin® RNA kit, and the samples were stored at −80 °C.

Abca4−/− Rdh8−/− mice = assay: ERG after 6 months of oral complementation in Abca4−/− Rdh8−/− mice; assay type: in vivo, mouse
Description: as §1
A custom rodent diet was formulated and irradiated (25 kGy) by Envigo RMS SARL (Gannat, France). Low dose (LD)-BIO203 (50 μg/g) and high dose (HD)-BIO203 (500 μg/g) were incorporated into Teklad Custom Research Diet 2016© pellets. The pellets were stored at −20 °C until use and were administered ad libitum as the standard Teklad Global Rodent Diet 2016© used for the control group. The concentration of BIO203 in the customized pellets at the end of each batch was determined by HPLC MS/MS. The mean concentration was 46 μg/g ± 3.5 μg/g of pellet for the LD and 464 μg/g ± 24.3 μg/g of pellet for the HD. We calculated that in the LD group, male mice weighing 31.63 g after 2 months of complementation consumed 4.16 g of pellets, and in the HD group, male mice weighing 34.11 g after 2 months of complementation consumed 4.11 g of pellets every day, which correspond to a daily dose of 6.04 ± 0.46 mg/kg for the LD-BIO203 pellets and 55.91 ± 2.93 mg/kg for the HD-BIO203 pellets.
To test the preventive/curative action of oral administration of BIO203 against retinal neurodegeneration, a total of 27 Pigmented Abca4^−/− Rdh8^−/− mice carrying the Rpe65-Leu450 mutation and the rd8 mutation in the Crb1 gene from Case Western Reserve University of eleven to twelve months of age were used. […] After 6 months of complementation, ERG was measured in both eyes. […] In each group, half of the eyes were removed for A2E and BIO203 measurements, and half of the eyes were used for histological analyses and photoreceptor layer quantification.

RXR [3] = assay: RXR transactivation assay induced by A2E; assay type: cell-based, pig; conditions: compound 20 μM; A2E 20 μM; porcine RPE cells
Description: (§2) Transactivation assays were performed as previously described. Briefly, RPE cells were plated in DMEM 2% FCS at a density of 6 × 10^4 cells/cm^2. The next day transfections using the Cignal Reporter Assay Kits for PPAR, RXR, AP-1, and NF-κB were performed with Lipofectamine and Plus Reagent in serum-free medium. Three hours after the transfection, A2E and/or BIO203, both at 20 μM, were added to the culture medium for 24 h. Luciferase activity was measured using the Dual-Luciferase Reporter Assay System and with a luminometer (Infinite M1000 from Tecan, Mannedorf, Switzerland). At least 3 independent transfections were performed in triplicate for each condition.

AP-1 = AP-1 transactivation assay induced by A2E; assay type: cell-based, pig; conditions: compound 20 μM; A2E 20 μM
Description: as §2

RXR [4] = test system: RXR; set-up: method as in PMID 34544906; conditions: porcine RPE cells in vitro; cited from earlier work

For `COC1CCCN(C(=O)/C=C/C(C)=C/C=C/C(C)=C/C=C/C=C(C)/C=C/C=C(C)\C=C\C(=O)O)C1` (centres unmarked) [BIO203], the “effect on visual function (ERG A-wave and B-wave)” value (shortened to “effect on visual function”) ([1]; 5 mg/kg, ERG 7 days after blue light) was “no significant effect”, the “effect on visual function” value ([1]; 10 mg/kg, ERG 7 days after blue light) was “no significant effect” and the “effect on visual function” value ([1]; 25 mg/kg, ERG 7 days after blue light, p < 0.0001) was “protective effect”. For the same molecule, the “efficacy dose in the rat model of BLD” value [1] was 25 mg/kg, the “concentration from which protective effect was observed” value [2] was at least 10 µM and the “concentration of maximum efficacy / highest protection” value [2] was 15 µM. For the same molecule, the “photopic B wave ERG compared with control pellets” value (Abca4−/− Rdh8−/− mice; HD pellets) was “no significant difference”, the “scotopic A wave ERG compared with control pellets” value (Abca4−/− Rdh8−/− mice; HD pellets, flash intensities 1 and 10 cd.s/m^2, p < 0.05) was “significantly superior” and the “scotopic B wave ERG compared with control pellets” value (Abca4−/− Rdh8−/− mice; HD pellets, flash intensity 30 cd.s/m^2, p < 0.05) was “reduced the loss”. For the same molecule, the “effect on the visual function (ERG)” value (Abca4−/− Rdh8−/− mice; LD pellets) was “No effect”, the “inhibition of RXR transactivation induced by A2E” value (RXR [3]) was “did not inhibit” and the “inhibition of AP1 transactivation induced by A2E” value (AP-1) was “inhibited”.

In the case of `CC(=C/C=C/C(C)=C/C=C/C=C(C)/C=C/C=C(C)/C=C/C(=O)O)/C=C/C(=O)O` [norbixin, 9′-cis-norbixin], the “inhibition of RXR transactivation induced by A2E” value (RXR [4]) is listed as “significantly inhibited”, the “effect on visual function” value ([1]; 50 mg/kg, positive controls) is listed as “protected the visual functions” and the “efficacy dose in the rat model of BLD” value [1] is listed as 50 mg/kg. The “survival of RPE cells” value ([2]; 20 μM compound) was “more than 80%” and the “concentration of maximum efficacy / highest protection” value [2] was 20 µM.
